These results are taken from patent US8853276B2, “Guanidine derivatives in cinnamic series” (Produits Chimiques Auxiliaires et de Synthese, priority 2010, dated 2014).

The test system of this experiment is fibrillin-1. The experiment in a line: Anti-glycation study on skin explants: fibrillin-1 immunolabeling with image analysis. In kind it is cell-based, human. Conditions: for Fibrillin-1 (% of surface area under the dermo-epidermal junction), Mean: topical 2 mg per explant on D0, D3, D5, D7, aminoguanidine at 0.15%, compound 29 at 1%. The protocol:
The anti-aging properties of a derivative according to the invention were evaluated by performing a comparative study of the anti-glycation activity of several compounds.
From an arm of a person, 21 explants (about 10 mm in diameter) were prepared and placed under survival conditions in BEM specific medium (BIO-EC's Explants Medium).
The explants were divided into seven batches of three explants:
Methylglyoxal was incorporated into the survival medium on D3, D5 and D7.
Compound 29 and the reference, aminoguanidine, were applied topically at a rate of 2 mg per explant on D0, D3, D5 and D7.
The controls (batches T0 and T) received no treatment.
On D0, the three explants of batch T0 were sampled and divided into two. One half was fixed with buffered formaldehyde and the other half was frozen at −80° C. On D9, three explants from each batch were sampled and treated in the same manner.
After 24 hours of fixing in the buffered formaldehyde, the samples were dehydrated and impregnated with paraffin using a Leica 1020 dehydration robot. They were embedded using a Leica EG 1160 coating station. 5 μm slices were produced using a Minot Leica RM 2125 microtome and bonded to Superfrost® histological glass slides.
The nuclei were stained with propidium iodide. The labeling was quantified by image analysis measurements with the Q-WIN Leica system.

Where [1] appears, read: D9 with methylglyoxal (in survival medium D3, D5, D7).
Where [2] appears, read: D9 with methylglyoxal, relative to the control batch T without methylglyoxal.

Take `COc1cc(/C=C/C(=O)NNC(=N)N)ccc1O` [Compound 29, imino{2-[(2E)-3-(4-hydroxy-3-methoxyphenyl)prop-2-enoyl]hydrazino}methanaminium nitrate]: the “Fibrillin-1 (% of surface area under the dermo-epidermal junction), Mean” value is, setting by setting: under setting [1], 27.7%; (D9 without methylglyoxal) 21.53%. The “increase in the percentage of surface area occupied by fibrillin-1 under the dermo-epidermal junction” value under setting [2] is reported as 17%.
With `N=C(N)NN` [aminoguanidine, Aminoguanidine], the “reduction of the methylglyoxal-induced decrease in the expression of fibrillin-1” value (D9, treatment in the presence of methylglyoxal) was 49%. For the same molecule, under “D9 in the presence of methylglyoxal, compared with control batch T MG”, the “expression of fibrillin-1 (labeling, observation)” value was “very sharp and greater than that observed on the control batch T MG with methylglyoxal”. The “Fibrillin-1 (% of surface area under the dermo-epidermal junction), Mean” value is on record as 21.0% under setting [1] and 28.3% (D9 without methylglyoxal). The “decrease in the percentage of surface area occupied by fibrillin-1 under the dermo-epidermal junction” value under setting [2] was 12%.
As for `CC(=O)C=O` [methylglyoxal, Methylglyoxal], the “decrease in the percentage of surface area occupied by fibrillin-1 under the dermo-epidermal junction” value under setting [2] was found to be 23%.
